Measured values as given in patent US8937062B2, “Compositions and methods for treating, reducing, ameliorating, or preventing infections caused by antibacterial drug-resistant bacteria” (Bausch & Lomb Incorporated, priority 2007, dated 2015).
≈ marks a conversion by molar mass, not a printed value. Where two headings read alike, the source gives them in different places. One block for each compound: values may come before it.

What was measured:
[1] = tested on: Methicillin-Resistant S. aureus Isolates; test: In vitro anti-bacterial activity, fourth test, Table 5; assay type: cell-based, Staphylococcus aureus; settings: Staphylococcus aureus, read-out: MIC90
Protocol: In a fourth test, the anti-bacterial activity of the compound having Formula IV was tested against some methicillin-resistant S. aureus bacteria strains and compared to the anti-bacterial activity of three commercially available antibiotics: nadifloxacin (“NDFX”), ofloxacin (“OFLX”), and sparfloxacin (“SPFX”).

[2] = tested on: S. pneumoniae Clinical Isolates; test: In vitro activity against clinical isolates, sixth test, Table 7; assay type: cell-based; settings: 78 isolates; for MIC90: Streptococcus pneumoniae
[3] = tested on: S. epidermidis, methicillin-resistant; test: MIC90, broth microdilution (CLSI M7-A7), Table 4; assay type: cell-based; settings: Staphylococcus epidermidis, 64 isolates
Protocol: (§1) The MIC90 values were determined according to the broth microdilution method outlined in the Clinical and Laboratory Standards Institute Approved Standard M7-A7 (2006).

[4] = tested on: S. pneumoniae, penicillin-intermediately resistant; test: MIC90, broth microdilution (CLSI M7-A7), Table 4; assay type: cell-based; settings: Streptococcus pneumoniae, 26 isolates
Protocol: as §1

[5] = tested on: S. aureus, vancomycin-intermediately resistant; test: MIC90, broth microdilution (CLSI M7-A7), Table 4; assay type: cell-based; settings: Staphylococcus aureus, 23 isolates
Protocol: as §1

[6] = tested on: H. influenzae, β-lactamase positive; test: MIC90, broth microdilution (CLSI M7-A7), Table 4; assay type: cell-based; settings: 53 isolates; for MIC90: Haemophilus influenzae
Protocol: as §1

[7] = tested on: S. pneumoniae, penicillin-resistant; test: MIC90, broth microdilution (CLSI M7-A7), Table 4; assay type: cell-based; settings: 26 isolates; for MIC90: Streptococcus pneumoniae
Protocol: as §1

[8] = tested on: S. aureus, methicillin- and ciprofloxacin-resistant; test: MIC90, broth microdilution (CLSI M7-A7), Table 4; assay type: cell-based; settings: Staphylococcus aureus, 24 isolates
Protocol: as §1

[9] = tested on: S. aureus, methicillin-resistant and ciprofloxacin-sensitive; test: MIC90, broth microdilution (CLSI M7-A7), Table 4; assay type: cell-based; settings: 25 isolates; for MIC90: Staphylococcus aureus
Protocol: as §1

[10] = tested on: H. influenzae, β-lactamase positive, ampicillin-resistant; test: MIC90, broth microdilution (CLSI M7-A7), Table 4; assay type: cell-based; settings: 25 isolates; for MIC90: Haemophilus influenzae
Protocol: as §1

[11] = tested on: S. aureus, vancomycin-resistant; test: MIC90, broth microdilution (CLSI M7-A7), Table 4; assay type: cell-based; settings: Staphylococcus aureus, 3 isolates, read-out: MIC90 Geometric Mean
Protocol: as §1

[12] = tested on: E. cloacae, extended-spectrum β-lactamase positive; test: MIC90, broth microdilution (CLSI M7-A7), Table 4; assay type: cell-based; settings: Enterobacter cloacae, 15 isolates
Protocol: as §1

[13] = tested on: S. pneumoniae, levofloxacin-resistant; test: MIC90, broth microdilution (CLSI M7-A7), Table 4; assay type: cell-based; settings: Streptococcus pneumoniae, 25 isolates
Protocol: as §1

[14] = tested on: GM-resistant P. aeruginosa; test: MIC90, agar plate dilution method (NCCLS), Table 2; assay type: cell-based; settings: 10 isolates
Protocol: (§2) The MIC90 values for this test were determined by the agar plate dilution method according to the National Committee for Clinical Laboratory Standards (“NCCLS”).

[15] = tested on: OFLX-resistant Enterobacteriaceae; test: MIC90, agar plate dilution method (NCCLS), Table 2; assay type: cell-based
Protocol: as §2

[16] = tested on: APC-resistant Haemophilus influenza.; test: MIC90, agar plate dilution method (NCCLS), Table 2; assay type: cell-based; settings: for MIC90: Haemophilus
Protocol: as §2

[17] = tested on: GM-resistant S. aureus; test: MIC90, agar plate dilution method (NCCLS), Table 2; assay type: cell-based; settings: Staphylococcus aureus, 10 isolates, read-out: MIC90 Geometric Mean
Protocol: as §2

[18] = tested on: PCG-resistant S. pneumoniae; test: MIC90, agar plate dilution method (NCCLS), Table 2; assay type: cell-based; settings: 10 isolates
Protocol: as §2

[19] = tested on: OFLX-resistant S. aureus; test: MIC90, agar plate dilution method (NCCLS), Table 2; assay type: cell-based; settings: Staphylococcus aureus, 10 isolates, read-out: MIC90 Geometric Mean
Protocol: as §2

[20] = tested on: S. aureus Clinical Isolates; test: In vitro activity against clinical isolates, sixth test, Table 7; assay type: cell-based; settings: Staphylococcus aureus, 49 isolates
[21] = ATCC33591, Staphylococcus aureus (ATCC 33591)
[22] = ATCC33592, Staphylococcus aureus (ATCC 33592)
[23] = ATCC33593, Staphylococcus aureus (ATCC 33593)
[24] = Staphylococcus aureus (No. 395)
[25] = Staphylococcus aureus (No. 415)
[26] = Staphylococcus aureus (No. 419)
[27] = Staphylococcus aureus (No. 420)
[28] = Staphylococcus aureus (No. 421)

SMILES: COc1c(N2C[C@@H]3CCCN[C@@H]3C2)c(F)cc2c(=O)c(C(=O)O)cn(C3CC3)c12 [MOFX, moxifloxacin]
MIC90 Range [2]: 0.06 to 0.25 µg/mL
MIC90 [2]: 0.12 µg/mL (≈ 0.299 µM)
MIC90 ([3]; read-out: MIC90 Geometric Mean): 1.12 µg/mL (≈ 2.8 µM)
MIC90 ([3]; read-out: MIC90 Value): > 8 µg/mL
MIC90 ([4]; read-out: MIC90 Geometric Mean): 0.209 µg/mL (≈ 0.521 µM)
MIC90 ([4]; read-out: MIC90 Value): 0.25 µg/mL (≈ 0.623 µM)
MIC90 ([5]; read-out: MIC90 Geometric Mean): 2.69 µg/mL (≈ 6.7 µM)
MIC90 ([5]; read-out: MIC90 Value): 8 µg/mL (≈ 19.9 µM)
MIC90 Range [6]: 0.015 to 0.06 µg/mL
MIC90 ([6]; read-out: MIC90 Geometric Mean): 0.03 µg/mL (≈ 0.0747 µM)
MIC90 ([6]; read-out: MIC90 Value): 0.06 µg/mL (≈ 0.149 µM)
MIC90 Range [7]: 0.06 to 0.25 µg/mL
MIC90 ([7]; read-out: MIC90 Geometric Mean): 0.217 µg/mL (≈ 0.541 µM)
MIC90 ([7]; read-out: MIC90 Value): 0.25 µg/mL (≈ 0.623 µM)
MIC90 ([8]; read-out: MIC90 Geometric Mean): 6.92 µg/mL (≈ 17.2 µM)
MIC90 ([8]; read-out: MIC90 Value): > 8 µg/mL
MIC90 Range [9]: 0.015 to 8 µg/mL
MIC90 ([9]; read-out: MIC90 Geometric Mean): 0.057 µg/mL (≈ 0.142 µM)
MIC90 ([9]; read-out: MIC90 Value): 0.12 µg/mL (≈ 0.299 µM)
MIC90 Range [10]: 0.015 to 0.12 µg/mL
MIC90 ([10]; read-out: MIC90 Geometric Mean): 0.047 µg/mL (≈ 0.117 µM)
MIC90 ([10]; read-out: MIC90 Value): 0.12 µg/mL (≈ 0.299 µM)
MIC90 [11]: 6.35 µg/mL (≈ 15.8 µM)
MIC90 ([12]; read-out: MIC90 Geometric Mean): 2.75 µg/mL (≈ 6.85 µM)
MIC90 ([12]; read-out: MIC90 Value): > 8 µg/mL
MIC90 ([13]; read-out: MIC90 Geometric Mean): 3.68 µg/mL (≈ 9.17 µM)
MIC90 ([13]; read-out: MIC90 Value): > 8 µg/mL

SMILES: C[C@@H]1CN(c2c(F)c(N)c3c(=O)c(C(=O)O)cn(C4CC4)c3c2F)C[C@H](C)N1 [SPFX, sparfloxacin]
MIC90 [1, 21]: 0.024 µg/mL (≈ 0.0612 µM)
MIC90 [1, 22]: 0.1 µg/mL (≈ 0.255 µM)
MIC90 [1, 23]: 0.024 µg/mL (≈ 0.0612 µM)
MIC90 [1, 24]: 0.05 µg/mL (≈ 0.127 µM)
MIC90 [1, 25]: 0.2 µg/mL (≈ 0.51 µM)
MIC90 [1, 26]: 1.56 µg/mL (≈ 3.98 µM)
MIC90 [1, 27]: 0.78 µg/mL (≈ 1.99 µM)
MIC90 [1, 28]: 0.39 µg/mL (≈ 0.994 µM)

SMILES: O=C(O)c1cn(C2CC2)c2cc(N3CCNCC3)c(F)cc2c1=O [CPLX, ciprofloxacin]
MIC90 Range [14]: 0.13 to 32 µg/mL
MIC90 ([14]; Pseudomonas aeruginosa, read-out: MIC90 Geometric Mean): 1.87 µg/mL (≈ 5.64 µM)
MIC90 Range ([15]; OFLX-resistant Enterobacteriaceae, 10 isolates): 4 to 32 µg/mL
MIC90 ([15]; read-out: MIC90 Geometric Mean): 10.6 µg/mL (≈ 32 µM)
MIC90 Range ([16]; APC-resistant Haemophilus influenza., 10 isolates): ≦0.06 μg/ml
MIC90 ([16]; read-out: MIC90 Geometric Mean): ≤ 0.06 µg/mL
MIC90 ([16]; read-out: MIC90 Value): ≤ 0.06 µg/mL
MIC90 [17]: 26 µg/mL (≈ 78.5 µM)
MIC90 Range [18]: 0.5 to 2 µg/mL
MIC90 [19]: 147 µg/mL (≈ 444 µM)

Next, values leading:

MIC90 [1, 21]: 0.006 µg/mL (≈ 0.0166 µM)
MIC90 [1, 22]: 0.05 µg/mL (≈ 0.139 µM)
MIC90 [1, 23]: 0.024 µg/mL (≈ 0.0666 µM)
MIC90 [1, 24]: 0.024 µg/mL (≈ 0.0666 µM)
MIC90 [1, 25]: 0.1 µg/mL (≈ 0.277 µM)
MIC90 [1, 26]: 0.39 µg/mL (≈ 1.08 µM)
MIC90 [1, 27]: 0.78 µg/mL (≈ 2.16 µM)
MIC90 [1, 28]: 0.78 µg/mL (≈ 2.16 µM)
SMILES: CC1CCc2c(N3CCC(O)CC3)c(F)cc3c(=O)c(C(=O)O)cn1c23 (centres unmarked) [NDFX, nadifloxacin]

MIC90 Range [2]: 0.5 to 2 µg/mL
MIC90 [2]: 1 µg/mL (≈ 2.77 µM)
MIC90 [20]: 4 µg/mL (≈ 11.1 µM)
SMILES: C[C@H]1COc2c(N3CCN(C)CC3)c(F)cc3c(=O)c(C(=O)O)cn1c23 [LVFX, levofloxacin]
